According to paper PMC2970562, “High-Affinity Inhibitors of Human NAD^+-Dependent 15-Hydroxyprostaglandin Dehydrogenase: Mechanisms of Inhibition and Structure-Activity Relationships” (PLoS ONE, 2010):
Entries after “also recorded” stand apart in the source; their conditions may differ. Values belong to the molecule of their own block, whether it stands above or below them.

Tests used:
HADH2 (HSD17β10) = molecular target: T1, HADH2 (HSD17β10) (Homo sapiens, UniProt Q99714); experiment: Selectivity screen, hydroxyacyl dehydrogenase (PubChem Assay ID 886)
T1 sequence (Q99714 1-261): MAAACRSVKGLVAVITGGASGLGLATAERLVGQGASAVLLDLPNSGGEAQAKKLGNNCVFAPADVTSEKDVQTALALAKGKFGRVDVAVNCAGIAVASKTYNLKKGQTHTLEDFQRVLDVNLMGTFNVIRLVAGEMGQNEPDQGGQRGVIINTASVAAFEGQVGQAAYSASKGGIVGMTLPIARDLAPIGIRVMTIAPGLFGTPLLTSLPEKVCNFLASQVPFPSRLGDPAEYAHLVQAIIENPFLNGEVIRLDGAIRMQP
Procedure: (§2) The list also includes two SDR enzymes, hydroxyacyl dehydrogenase (HADH2, also known as type-10 hydroxysteroid dehydrogenase, HSD17β10; PubChem Assay ID 886) and type-4 hydroxysteroid dehydrogenase (HSD17β4; PubChem Assay ID 893), and a medium-chain dehydrogenase/reductase (MDR), aldehyde dehydrogenase 1 (ALDH1A1; PubChem Assay ID 1030), each of which was tested using a similar experimental protocol to that used for 15-PGDH.

human 15-PGDH [1] = molecular target: T2, human 15-PGDH (Homo sapiens, UniProt P15428); experiment: Differential scanning fluorimetry (DSF), thermal stabilization; type: binding; conditions: for ∆Tm [°C] NAD+: with 200 µM NAD+; for ∆Tm [°C] NAD+ / ∆Tm [°C] NADH / ∆Tm [°C] apo: 1 µM protein, compound 50 or 250 µM, N/A = no unfolding transition observed in DSF; for ∆Tm [°C] NADH: with 200 µM NADH; for ∆Tm [°C] apo: without cofactor
T2 construct: comprising residues 3–256 of the human HPGD gene (GenBank identifier: 1203982); His6 (GHHHHHH, behind the TEV site) (C, cleaved yes); made in house; host or cells: E. coli BL21(DE3)-R3
T2 sequence (P15428 3-256): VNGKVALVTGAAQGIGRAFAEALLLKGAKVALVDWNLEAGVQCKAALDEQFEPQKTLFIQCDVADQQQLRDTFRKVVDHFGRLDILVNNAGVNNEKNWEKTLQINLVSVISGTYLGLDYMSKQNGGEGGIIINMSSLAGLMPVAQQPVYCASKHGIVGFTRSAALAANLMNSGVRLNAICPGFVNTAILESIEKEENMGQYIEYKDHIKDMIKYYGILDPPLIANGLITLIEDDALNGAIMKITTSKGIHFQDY

human 15-PGDH [2] = molecular target: T2, human 15-PGDH; experiment: Compound titrations of re-synthesized inhibitors in the kinetic assay; type: biochemical; conditions: 10 nM 15-PGDH, 30 µM PGE2, 200 µM NAD+, 25°C, lower percent substrate conversion; read-out: IC50, re-synthesized compounds
Procedure: (§1) Kinetic studies were performed in 100 mM Tris buffer pH 8.0, containing 0.01% Tween-20 and 10 nM 15-PGDH enzyme. […] All inhibitor compounds were dissolved in 10% (v/v) DMSO at varying concentrations from which they were applied at 1∶5 ratio (resulting in a final concentration of 2% (v/v) DMSO in all assays). For each experiment an aliquot of purified enzyme was thawed freshly and pre-diluted to 10 µM in buffer I (5 mM Tris/HCl, pH 8.0, 150 mM NaCl, 0.01% Tween-20). All experiments were performed in white 384-well PCR microplates (Bio-Rad Laboratories, Inc.) in final assay volumes of 20 µL. Twelve-point compound titrations were set up from serially diluted stock solutions in 10% (v/v) DMSO. […] The initial rates recorded in compound titrations were plotted against -log[compound], and non-linear regression (Levenberg-Marquardt) fitting of the dose-response curve to the Hill equation [47] was performed to derive the IC50, using PRISM 5.0 (GraphPad Software, Inc.). For substrate/cofactor titrations, curves with initial rates plotted against the concentration of substrate or cofactor were fitted to the Michaelis-Menten equation, to derive maximal activities, V max, and Michaelis constants, K m. Fitting qualities were judged from the goodness of fit (R^2>0.98).

human 15-PGDH [3] = molecular target: T2, human 15-PGDH; experiment: Substrate (PGE2) and cofactor (NAD+) titrations, mechanism of action, global fitting; type: biochemical; conditions: for Competitive (CM), fit residual Chi^2 value / Mixed-mode (MM), fit residual Chi^2 value / Noncompetitive (NM), fit residual Chi^2 value / Uncompetitive (UM), fit residual Chi^2 value: global fitting; for Titration of NAD^+ K m / Titration of NAD^+ V max [µmol/(min×mg)] / Titration of NAD^+ k cat/K m[×10^6] / Titration of NAD^+ k cat[1/sec]: 30 µM PGE2
Procedure: as §1

HSD17β4 = molecular target: T3, HSD17β4 (Homo sapiens, UniProt P51659); experiment: Selectivity screen, type-4 hydroxysteroid dehydrogenase (PubChem Assay ID 893)
T3 sequence (P51659 1-736): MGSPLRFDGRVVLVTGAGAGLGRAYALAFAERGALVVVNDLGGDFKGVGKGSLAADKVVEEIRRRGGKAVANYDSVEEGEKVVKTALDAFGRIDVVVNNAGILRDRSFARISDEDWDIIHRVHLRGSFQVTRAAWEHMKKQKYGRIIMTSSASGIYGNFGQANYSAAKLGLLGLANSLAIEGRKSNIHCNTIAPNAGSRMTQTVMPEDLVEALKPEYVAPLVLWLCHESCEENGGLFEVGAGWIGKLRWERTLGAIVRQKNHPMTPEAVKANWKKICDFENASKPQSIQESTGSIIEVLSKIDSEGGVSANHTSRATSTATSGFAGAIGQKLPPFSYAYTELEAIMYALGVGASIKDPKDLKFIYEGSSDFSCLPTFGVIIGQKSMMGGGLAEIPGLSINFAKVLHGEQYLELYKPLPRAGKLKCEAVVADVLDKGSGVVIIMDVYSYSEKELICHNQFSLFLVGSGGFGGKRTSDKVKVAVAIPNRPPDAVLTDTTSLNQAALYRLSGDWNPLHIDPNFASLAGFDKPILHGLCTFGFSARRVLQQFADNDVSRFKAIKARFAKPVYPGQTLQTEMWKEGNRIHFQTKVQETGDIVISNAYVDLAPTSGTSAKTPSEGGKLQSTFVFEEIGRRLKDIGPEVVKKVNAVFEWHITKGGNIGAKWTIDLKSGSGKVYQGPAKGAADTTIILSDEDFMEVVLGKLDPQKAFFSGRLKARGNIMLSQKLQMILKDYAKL
Procedure: as §2

[4] = NAD+ titration, inhibitor 20 nM
[5] = PGE2 titration, inhibitor 10 nM

- IC50 (HADH2 (HSD17β10)): > 57.5 µM
- ΔTm in the presence of NAD+ (human 15-PGDH [1]): 7.3±0.2 °C
- ΔTm in the presence of NADH (human 15-PGDH [1]): 13.5±0.9 °C
- ∆Tm [°C] NAD+ (human 15-PGDH [1]): 7.3 °C
- ∆Tm [°C] NADH (human 15-PGDH [1]): 13.5 °C
- ∆Tm [°C] apo (human 15-PGDH [1]): -1.7 °C
- IC50 (human 15-PGDH [2]): 7.9 ± 0.8 nM
- decrease of K m for NAD+ (human 15-PGDH [3]; [4]): ~45%
- decrease of V max (human 15-PGDH [3]; [4]): approximately 60%
- Sum-of-squares F-test p, UM vs. MM (human 15-PGDH [3]; NAD^+ titration): UM vs. MM:p = 0.0654
- Sum-of-squares F-test p, NM vs. MM (human 15-PGDH [3]; PGE2 titration): NM vs. MM:p = 0.0017
- Sum-of-squares F-test p, UM vs. MM (human 15-PGDH [3]; PGE2 titration): UM vs. MM:p = 0.0133
- decrease of V max (human 15-PGDH [3]; [5]): 25%
- V max relative to no inhibitor (human 15-PGDH [3]; PGE2 titration, inhibitor 20 nM, in words): less than half
- Preferred mode of inhibition (human 15-PGDH [3]; PGE2 titration, rejection threshold p = 0.05): MM (MM, mixed-mode inhibition)
- Competitive (CM), fit residual Chi^2 value (human 15-PGDH [3]; NAD^+ titration): 0.8764
- Mixed-mode (MM), fit residual Chi^2 value (human 15-PGDH [3]; NAD^+ titration): 0.9675
- Noncompetitive (NM), fit residual Chi^2 value (human 15-PGDH [3]; NAD^+ titration): 0.9655
- Uncompetitive (UM), fit residual Chi^2 value (human 15-PGDH [3]; NAD^+ titration): 0.9664
- Competitive (CM), fit residual Chi^2 value (human 15-PGDH [3]; PGE2 titration): 0.8669
- Mixed-mode (MM), fit residual Chi^2 value (human 15-PGDH [3]; PGE2 titration): 0.9797
- Noncompetitive (NM), fit residual Chi^2 value (human 15-PGDH [3]; PGE2 titration): 0.9777
- Uncompetitive (UM), fit residual Chi^2 value (human 15-PGDH [3]; PGE2 titration): 0.9784
- mode of inhibition with respect to the cofactor NAD+ (human 15-PGDH [3]; in words): uncompetitively
- Titration of PGE2 K m (human 15-PGDH [3]; inhibitor 10.0 nM): 3.7 ± 0.5 µM
- Titration of PGE2 V max[µmol/(min×mg)] (human 15-PGDH [3]; inhibitor 10.0 nM): 21.3 µmol/min/mg
- Titration of PGE2 k cat/K m[×10^6] (human 15-PGDH [3]; inhibitor 10.0 nM): 2.8 ×10^6
- Titration of PGE2 k cat[1/sec] (human 15-PGDH [3]; inhibitor 10.0 nM): 10.3 ± 0.3 s⁻¹
- Titration of NAD^+ K m (human 15-PGDH [3]; inhibitor 10.0 nM): 10.7 ± 0.6 µM
- Titration of NAD^+ V max [µmol/(min×mg)] (human 15-PGDH [3]; inhibitor 10.0 nM): 17.5 µmol/min/mg
- Titration of NAD^+ k cat/K m[×10^6] (human 15-PGDH [3]; inhibitor 10.0 nM): 0.8 ×10^6
- Titration of NAD^+ k cat[1/sec] (human 15-PGDH [3]; inhibitor 10.0 nM): 8.5 ± 0.1 s⁻¹
- Titration of PGE2 K m (human 15-PGDH [3]; inhibitor 20.0 nM): 2.8 ± 0.4 µM
- Titration of PGE2 V max[µmol/(min×mg)] (human 15-PGDH [3]; inhibitor 20.0 nM): 12.6 µmol/min/mg
- Titration of PGE2 k cat/K m[×10^6] (human 15-PGDH [3]; inhibitor 20.0 nM): 2.1 ×10^6
- Titration of PGE2 k cat[1/sec] (human 15-PGDH [3]; inhibitor 20.0 nM): 6.1 ± 0.2 s⁻¹
- Titration of NAD^+ K m (human 15-PGDH [3]; inhibitor 20.0 nM): 8.9 ± 0.8 µM
- Titration of NAD^+ V max [µmol/(min×mg)] (human 15-PGDH [3]; inhibitor 20.0 nM): 8.2 µmol/min/mg
- Titration of NAD^+ k cat/K m[×10^6] (human 15-PGDH [3]; inhibitor 20.0 nM): 0.4 ×10^6
- Titration of NAD^+ k cat[1/sec] (human 15-PGDH [3]; inhibitor 20.0 nM): 4.0 ± 0.1 s⁻¹
- IC50 (HSD17β4): > 57.5 µM
Structure (SMILES): Cc1cccc(-n2cnc3cc(C(=O)N4CCCCC4)ccc32)c1 [Compound 13, [1-(3-methylphenyl)-1H-benzimidazol-5-yl)(piperidin-1-yl)methanone]
- mode of inhibition with respect to the substrate PGE2 (human 15-PGDH [3]; in words): noncompetitive, uncompetitive or mixed-modes; also recorded: noncompetitively or in a mixed-type mode

- IC50 (HADH2 (HSD17β10)): > 57.5 µM
- ∆Tm [°C] NAD+ (human 15-PGDH [1]): 5.0 °C
- ∆Tm [°C] NADH (human 15-PGDH [1]): 10.5 °C
- ∆Tm [°C] apo (human 15-PGDH [1]): 0.1 °C
- IC50 (human 15-PGDH [2]): 15 ± 1.2 nM
- Sum-of-squares F-test p, NM vs. MM (human 15-PGDH [3]; PGE2 titration): NM vs. MM:p = 0.3515
- effect on the K m (human 15-PGDH [3]; PGE2 titration, in words): no effect
- decrease of V max (human 15-PGDH [3]; [5]): approximately 50%
- Competitive (CM), fit residual Chi^2 value (human 15-PGDH [3]; PGE2 titration): 0.9299
- Mixed-mode (MM), fit residual Chi^2 value (human 15-PGDH [3]; PGE2 titration): 0.9736
- Noncompetitive (NM), fit residual Chi^2 value (human 15-PGDH [3]; PGE2 titration): 0.9734
- Uncompetitive (UM), fit residual Chi^2 value (human 15-PGDH [3]; PGE2 titration): 0.9680
- mode of inhibition with respect to the substrate PGE2 (human 15-PGDH [3]; in words): noncompetitive or mixed-type
- Titration of PGE2 K m (human 15-PGDH [3]; inhibitor 4.0 nM): 5.6 ± 1.1 µM
- Titration of PGE2 V max[µmol/(min×mg)] (human 15-PGDH [3]; inhibitor 4.0 nM): 22.8 µmol/min/mg
- Titration of PGE2 k cat/K m[×10^6] (human 15-PGDH [3]; inhibitor 4.0 nM): 2.0 ×10^6
- Titration of PGE2 k cat[1/sec] (human 15-PGDH [3]; inhibitor 4.0 nM): 11.1 ± 0.5 s⁻¹
- Titration of PGE2 K m (human 15-PGDH [3]; inhibitor 10.0 nM): 6.4 ± 0.6 µM
- Titration of PGE2 V max[µmol/(min×mg)] (human 15-PGDH [3]; inhibitor 10.0 nM): 15.4 µmol/min/mg
- Titration of PGE2 k cat/K m[×10^6] (human 15-PGDH [3]; inhibitor 10.0 nM): 1.2 ×10^6
- Titration of PGE2 k cat[1/sec] (human 15-PGDH [3]; inhibitor 10.0 nM): 7.5 ± 0.2 s⁻¹
- IC50 (HSD17β4): > 57.5 µM
Structure (SMILES): Cc1cc(-c2nnc3n2CCCCC3)c(C)n1-c1ccccc1 [Compound 72]
